From patent publication US5948792A, “Fluorine-containing 1,4-disubstituted piperidine derivatives” (Banyu Pharmaceutical Co., Ltd., priority 1996, dated 1999)

How the values were obtained:
Muscarinic M2 receptor = biological target: T1, Muscarinic M2 receptor (Homo sapiens, UniProt P08172); assay: Inhibition of binding of [3H]-N-methylscopolamine to muscarinic M2 receptor; conditions: CHO cell membranes expressing cloned human receptor; 0.2 nM [3H]-N-methylscopolamine, pH 7.4, 2 hours, 25° C; read-out: Ki M2 (inhibitory effects on binding to muscarinic M2 receptor)
T1 construct: purchased Receptor Biology, Inc; host or cells: CHO cells (membranes)
T1 sequence (P08172 1-466): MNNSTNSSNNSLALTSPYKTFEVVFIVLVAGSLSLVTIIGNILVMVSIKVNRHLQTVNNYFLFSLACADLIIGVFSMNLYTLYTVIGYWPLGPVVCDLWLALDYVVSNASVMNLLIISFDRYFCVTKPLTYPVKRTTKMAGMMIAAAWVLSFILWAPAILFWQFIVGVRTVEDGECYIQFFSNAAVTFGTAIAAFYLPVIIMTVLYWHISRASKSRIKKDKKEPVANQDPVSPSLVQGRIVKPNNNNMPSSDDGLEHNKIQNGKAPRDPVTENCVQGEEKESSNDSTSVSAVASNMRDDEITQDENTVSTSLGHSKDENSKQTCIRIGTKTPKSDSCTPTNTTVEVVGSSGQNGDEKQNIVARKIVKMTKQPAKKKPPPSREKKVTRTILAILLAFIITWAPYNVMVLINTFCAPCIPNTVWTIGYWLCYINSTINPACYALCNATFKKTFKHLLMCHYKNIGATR
Description: (§1) Tests on Inhibition of Binding to Muscarinic Receptors
(§2) These tests were performed according to a modification of the method of Hargreaves et al. (Br. J. Pharmacol. 107: 494-501, 1992). Membranes from CHO cells expressing cloned human m1-m5 (Receptor Biology, Inc.) were incubated with 0.2 nM [^3 H]-N-methylscopolamine and each a compound of the present invention to be tested in 0.5 ml of 50 mM Tris-HCl-10 mM MgCl2 -1 mM EDTA (pH 7.4) for 2 hours at 25° C. Free and membrane-bound [^3 H]-N-methylscopolamine were separated by filtration over glass filters (UniFilter-GF/C; Packard Instruments Co., Inc.) using cell harvester (Filtermate™ 196; Packard Instruments Co., Inc.). Then the filter was washed four times with 1 ml of ice-cold Tris-HCl (pH 7.4) and dried at 50° C. After adding a scintillator (Microscinti 0; Packard Instruments Co., Inc.), the radioactivity was counted by a liquid scintillation counter (TopCount™; Packard Instruments Co., Inc.). Non-specific binding was measured in the presence of 1 μM N-methylscopolamine.

Muscarinic M3 receptor [1] = biological target: T2, Muscarinic M3 receptor (Homo sapiens, UniProt P20309); assay: Inhibition of binding of [3H]-N-methylscopolamine to muscarinic M3 receptor; conditions: for Ki: CHO cell membranes expressing cloned human receptor, 0.2 nM [3H]-N-methylscopolamine, pH 7.4, 2 hours, 25° C, read-out: Ki M3 (inhibitory effects on binding to muscarinic M3 receptor); for M2/M3 (ratio of binding Ki): selectivity ratio of Ki values
T2 construct: purchased Receptor Biology, Inc; host or cells: CHO cells (membranes)
Description: as §1, §2

M2 receptor = biological target: T3, M2 receptor (Rattus norvegicus, UniProt P10980); assay: Antagonism to M2 receptor in an isolated rat right atrium (in vitro); assay type: cell-based; conditions: carbachol-induced decrease in heart rate
T3 construct: the right atrium was isolated; from tissue; host or cells: isolated right atrium of male SD strain rat
T3 sequence (P10980 1-466): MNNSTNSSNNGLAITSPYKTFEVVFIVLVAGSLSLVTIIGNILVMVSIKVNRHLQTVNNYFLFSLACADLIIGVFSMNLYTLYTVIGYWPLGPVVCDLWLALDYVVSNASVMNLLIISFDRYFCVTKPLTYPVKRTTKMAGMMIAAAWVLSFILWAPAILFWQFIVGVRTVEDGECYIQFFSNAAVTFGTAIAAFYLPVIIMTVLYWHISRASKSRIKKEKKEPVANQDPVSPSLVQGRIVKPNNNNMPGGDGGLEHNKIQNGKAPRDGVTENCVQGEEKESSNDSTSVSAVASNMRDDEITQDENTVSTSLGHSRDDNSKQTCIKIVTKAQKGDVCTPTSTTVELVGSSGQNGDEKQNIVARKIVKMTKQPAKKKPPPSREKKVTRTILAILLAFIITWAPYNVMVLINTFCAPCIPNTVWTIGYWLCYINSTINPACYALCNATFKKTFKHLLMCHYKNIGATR
Description: (§3) Tests for Antagonism to Muscarinic Receptors (in vitro)
1) Tests for Antagonism to M2 receptor in an Isolated Rat Right Atrium
These tests were performed according to a conventional method. A male SD strain rat (weighing 300-500 g) was killed by exsanguination, and the right atrium was isolated. This preparation was isometrically suspended in organ bath filled with 20 ml of Krebs-Henseleit solution (gassed with 95% O2 -5% CO2 and kept at 32° C.) with an initial tension of 0.5 g. The heart rate was recorded with a heart rate counter. After the preparation was equilibrated for 30 minutes, carbachol (10^-9 to 10^-6 M) was cumulatively administered in three-fold increasing doses. Thus, a decrease in heart rate was measured to obtain a dose-response curve for the control experiment. After the preparation was washed with fresh solution to restore the heart rate, a test compound was administered thereto. Ten minutes later, carbachol was cumulatively administered again. Responses to carbachol were expressed as percentages based on the heart rate before administration of carbachol as 100%. The antagonistic potency (KB value) of the test compound was determined from the degree of shift of the dose-response curve obtained by treatment with individual test compound of the present invention.

airway M3 receptor = biological target: T4, airway M3 receptor (Rattus norvegicus, UniProt P08483); assay: Antagonism to the airway M3 receptor in an isolated rat trachea (in vitro); assay type: cell-based
T4 construct: the trachea was isolated; from tissue; host or cells: isolated trachea of male SD strain rat
Description: as §3
2) Tests for Antagonism to the Airway M3 Receptor in an Isolated Rat Trachea
These tests were performed according to a conventional method. A male SD strain rat (weighing 300-500 g) was killed by exsanguination, and the trachea was isolated. Annular segments (2 mm wide) were cut out from the trachea and cut transversely at the anterior cartilage part to make open ring preparation. A preparation was suspended in a Magnus tube filled with 5 ml of Krebs-Henseleit solution (gassed with 95% O2 -5% CO2 and kept at 32° C.) with an initial tension of 1.0 g and a resting tension of 0.6 g. The tension of the preparation was recorded isometrically. After being equilibrated for an hour, the preparation was made to contract twice by treatment with 10^-4 M carbachol, and the second contraction induced by carbachol was used as the reference contraction. After the preparation was washed with fresh solution to be restored to the base line, a test compound was administered thereto (or no treatment was given). Ten minutes later, carbachol (10^-8 to 10^-3 M) was cumulatively administered in three-fold increasing doses to obtain a dose-response curve. The dose-response curve was plotted by expressing responses as percentages based on the reference contraction of the preparation as 100%. The antagonistic potency (K^B value) of the test compound was determined from the degree of shift of the dose-response curve obtained by treatment with the test compound.

Muscarinic M3 Receptor [2] = biological target: T5, Muscarinic M3 Receptor (Rattus norvegicus, UniProt P08483); assay: Bronchodilation in rats (i.v.), inhibition of acetylcholine-induced increase in airway resistance; assay type: in vivo; conditions: iv, 5 min, acetylcholine 50 μg/kg i.v. 5 minutes after test compound, read-out: Inhibition of Airway Contraction ED50 iv
T5 construct: male rats of the Sprague-Dawley strain; from tissue; host or cells: airways of living male Sprague-Dawley rats (in vivo)
Description: Tests for Antagonism Against Muscarinic M3 Receptor (in vivo)
1-A) Tests for Bronchodilation in Rats (i.v.).
Eight- to eleven-weeks-old male rats of the Sprague-Dawley strain, weighing 380-420 g, were anesthetized with urethane (750 mg/kg. i.p.) and α-chloralose (37.5 mg/kg, i.p.). The bronchus of each rat was intubated, and the right jugular vein was cannulated for drug administration. […] To evoke an increase in airway resistance, acetylcholine (50 μg/kg, i.v.) was administered to the animals. The acetylcholine-induced airway resistance increase was measured 5 minutes before and 5 minutes after administration of test compound, and the ratio of the airway resistance of the latter to the former was calculated. In controls, isotonic sodium chloride solution was used in place of the test compounds and otherwise identical procedures were repeated, the calculated ratio being set to be 100%.

T2 sequence (P20309 whole entry): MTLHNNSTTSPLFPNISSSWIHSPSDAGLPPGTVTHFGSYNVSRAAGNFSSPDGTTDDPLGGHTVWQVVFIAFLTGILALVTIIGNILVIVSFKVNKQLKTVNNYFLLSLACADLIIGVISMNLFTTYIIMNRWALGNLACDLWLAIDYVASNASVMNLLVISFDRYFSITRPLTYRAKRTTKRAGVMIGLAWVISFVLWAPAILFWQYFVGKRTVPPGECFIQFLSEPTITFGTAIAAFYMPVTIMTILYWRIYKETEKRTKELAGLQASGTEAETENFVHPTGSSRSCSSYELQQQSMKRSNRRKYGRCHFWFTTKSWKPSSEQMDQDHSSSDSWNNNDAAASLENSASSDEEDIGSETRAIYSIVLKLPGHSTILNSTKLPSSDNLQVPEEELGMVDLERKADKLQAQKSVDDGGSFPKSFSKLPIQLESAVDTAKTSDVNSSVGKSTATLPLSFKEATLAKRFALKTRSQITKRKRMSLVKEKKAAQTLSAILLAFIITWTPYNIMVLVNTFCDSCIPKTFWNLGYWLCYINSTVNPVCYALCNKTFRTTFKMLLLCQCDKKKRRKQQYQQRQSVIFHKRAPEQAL
T4 sequence (P08483 whole entry): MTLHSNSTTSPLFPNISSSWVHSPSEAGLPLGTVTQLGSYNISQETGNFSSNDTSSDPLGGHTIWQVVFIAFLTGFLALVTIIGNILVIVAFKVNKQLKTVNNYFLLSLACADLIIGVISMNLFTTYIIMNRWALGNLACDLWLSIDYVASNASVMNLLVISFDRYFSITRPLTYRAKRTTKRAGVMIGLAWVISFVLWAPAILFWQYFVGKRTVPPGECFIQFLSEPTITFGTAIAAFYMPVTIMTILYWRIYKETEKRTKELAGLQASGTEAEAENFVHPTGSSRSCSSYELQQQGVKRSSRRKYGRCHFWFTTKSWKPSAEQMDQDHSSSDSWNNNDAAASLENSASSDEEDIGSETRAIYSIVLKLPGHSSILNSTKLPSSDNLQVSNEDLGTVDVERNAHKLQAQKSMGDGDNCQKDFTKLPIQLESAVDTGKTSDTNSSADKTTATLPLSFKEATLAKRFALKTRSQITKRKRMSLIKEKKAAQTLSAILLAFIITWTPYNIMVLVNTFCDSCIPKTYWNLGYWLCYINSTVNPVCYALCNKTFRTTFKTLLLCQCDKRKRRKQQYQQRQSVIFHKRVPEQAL
T5 sequence (P08483 whole entry): as above

SMILES	Ki (Muscarinic M2 receptor)	Ki (Muscarinic M3 receptor [1])	M2/M3 (ratio of binding Ki) (Muscarinic M3 receptor [1])	Kb (M2 receptor)	Kb (airway M3 receptor; isolated rat trachea, carbachol-induced contraction)	M2/M3 (ratio of KB) (airway M3 receptor; selectivity ratio of KB values, right atrium M2 / trachea M3)	ED50 (Muscarinic M3 Receptor [2])
CC(C)=CCCN1CCC(NC(=O)[C@](O)(c2ccccc2)[C@@H]2CCC(F)(F)C2)CC1 [Example 1, (2R)-N-[1-(4-methyl-3-pentenyl)piperidin-4-yl]-2-[(1R)-3,3-difluorocyclopentyl]-2-hydroxy-2-phenylacetamide]	3.2 µM	0.0055 µM	590	1 µM	0.0063 µM	160	0.033 mg/kg
Cc1cccc(CN2CCC(NC(=O)[C@](O)(c3ccccc3)[C@@H]3CCC(F)(F)C3)CC2)n1 [Example 10, (2R)-N-[1-(6-methylpyridin-2-ylmethyl)piperidin-4-yl]-2-[(1R)-3,3-difluorocyclopentyl]-2-hydroxy-2-phenylacetamide]	17 µM	0.0089 µM	1900	–	–	–	–
O=C(NC1CCN(Cc2ccoc2)CC1)[C@](O)(c1ccccc1)[C@@H]1CCC(F)(F)C1 [Example 12, (2R)-N-[1-(3-furylmethyl)piperidin-4-yl]-2-[(1R)-3,3-difluorocyclopentyl]-2-hydroxy-2-phenylacetamide]	8.6 µM	–	–	–	–	–	–
O=C(NC1CCN(Cc2ccccn2)CC1)[C@](O)(c1ccccc1)[C@@H]1CCC(F)(F)C1 [Example 14, (2R)-N-[1-(2-pyridylmethyl)piperidin-4-yl]-2-[(1R)-3,3-difluorocyclopentyl]-2-hydroxy-2-phenylacetamide]	1.4 µM	0.01 µM	140	–	–	–	–
COc1cccc(CN2CCC(NC(=O)[C@](O)(c3ccccc3)[C@@H]3CCC(F)(F)C3)CC2)c1 [Example 15, (2R)-N-[1-(3-methoxybenzyl)piperidin-4-yl]-2-[(1R)-3,3-difluorocyclopentyl]-2hydroxy-2-phenylacetamide]	1 µM	–	–	–	–	–	–
COc1cc(N)nc(CN2CCC(NC(=O)[C@](O)(c3ccccc3)[C@@H]3CCC(F)(F)C3)CC2)c1.Cl.Cl [Example 21, (2R)-N-[1-(6-amino-4-methoxypyridin-2-ylmethyl)piperidin-4-yl]-2-[(1R)-3,3-difluorocyclopentyl]-2-hydroxy-2-phenylacetamide dihydrochloride]	50 µM	0.022 µM	2300	–	–	–	–
Cc1cc(N)cc(CN2CCC(NC(=O)[C@](O)(c3ccccc3)[C@@H]3CCC(F)(F)C3)CC2)c1.Cl.Cl [Example 22, (2R)-N-[1-(3-amino-5-methylbenzyl)piperidin-4-yl]-2-[(1R)-3,3-difluorocyclopentyl]-2-hydroxy-2-phenylacetamide dihydrochloride]	13 µM	0.019 µM	680	–	–	–	–
Nc1cc(N)cc(CN2CCC(NC(=O)[C@](O)(c3ccccc3)[C@@H]3CCC(F)(F)C3)CC2)c1 [Example 27, (2R)-N-[1-(3,5-diaminobenzyl)piperidin-4-yl]-2-[(1R)-3,3-difluorocyclopentyl]-2-hydroxy-2-phenylacetamide]	4.2 µM	0.02 µM	210	–	–	–	–
COc1cc(N)cc(CN2CCC(NC(=O)[C@](O)(c3ccccc3)[C@@H]3CCC(F)(F)C3)CC2)c1.Cl.Cl [Example 31, (2R)-N-[1-(3-amino-5-methoxybenzyl)piperidin-4-yl]-2-[(1R)-3,3-difluorocyclopentyl]-2-hydroxy-2-phenylacetamide dihydrochloride]	10 µM	0.019 µM	520	–	–	–	–
CN1C2CCC1CC(OC(=O)C(CO)c1ccccc1)C2 (stereo not shown) [atoropine, reference compound]	–	–	–	–	–	–	0.0043 mg/kg
